Test results: patent EP0260829A2 (priority 1986, dated 1988)

Test system: anti-PCP antibody from ATCC HB 9198
Assay type: binding, rat
Conditions: for IC50: read-out: Molar IC50

SMILES	Percent Cross Reactivity With PCP [%]	IC50 [µM]	reaction with the antipentachlorophenol antibody
Oc1ccc(Cl)c(Cl)c1Cl [2,3,4-Trichlorophenol]	0.5	–	–
Oc1c(Cl)c(Cl)cc(Cl)c1Cl [2,3,5,6-Tetrachlorophenol]	42	–	–
Oc1cc(Cl)cc(Cl)c1Cl [2,3,5-Trichlorophenol]	0.5	–	–
Oc1c(Cl)ccc(Cl)c1Cl [2,3,6-Trichlorophenol]	8.8	–	–
Oc1cccc(Cl)c1Cl [2,3-Dichlorophenol]	0	> 1000	–
Oc1ccc(Cl)cc1Cl [2,4-Dichlorophenol]	0	> 1000	–
Oc1cc(Cl)ccc1Cl [2,5-Dichlorophenol]	0	> 1000	–
Oc1c(Cl)cccc1Cl [2,6-Dichlorophenol]	1.8	–	–
Oc1ccc(Cl)c(Cl)c1 [3,4-Dichlorophenol]	0	> 1000	–
Oc1cc(Cl)cc(Cl)c1 [3,5-Dichlorophenol]	0	> 1000	–
Oc1ccc(Cl)cc1 [4-Chlorophenol]	0	> 1000	–
Clc1cc(Cl)c(Cl)c(Cl)c1Cl [Pentachlorobenzene]	0	> 1000	fails to react
Oc1ccccc1 [Phenol]	0	> 1000	–
Oc1c(Cl)c(Cl)c(O)c(Cl)c1Cl [Tetrachlorohydroquinone]	0.8	–	–
